Legend:
α-syn [1] = biological target: T1, α-syn (Homo sapiens, UniProt P37840); experiment: ThT fluorescence assay of unseeded α-syn fibrillation in the presence of peptides; type: biochemical; conditions: 1 mg/ml α-syn, 0–0.5 mg/ml peptide, 48 h
T1 construct: made in house; host or cells: Escherichia coli BL21 (DE3), plasmid pET11-D
Description: To test the effects of these selected nine peptides on the aggregation of α-syn, we performed a thioflavin T (ThT) fluorescence assay in the presence of 1 mg/ml α-syn and 0 to 0.5 mg/ml peptide for 48 h (raw data in Fig. S3). Furthermore, the peptides alone were monitored for self-fibrillation. […] High concentrations of p222, p194, and p249 led to a decline in ThT fluorescence after reaching a plateau, possibly because of the formation of insoluble amorphous species. We also carried out seeding experiments by adding 5% sonicated preaggregated α-syn fibrils to the ThT assay.
About 150 μl of 70 μM (1 mg/ml) α-syn, 40 μM ThT, and varying amounts of peptides (0, 0.06, 0.125, 0. 25, 0.375, and 0.5 mg/ml) were transferred in triplicates to a black COSTAR 96-well clear bottom plate (Nunc, Thermo Fisher Scientific), and including a 3 mm diameter glass bead (Glaswarenfabrik Karl Hecht GmbH & Co KG) per well to increase reproducibility ([100]). The plate was sealed with Crystal Clear sealing tape (Hampton Research) and incubated at 37 °C in a CLARIOstar Plus (BMG LABTECH) fluorescence plate reader. Fibrillation was carried out for ∼48 h with 300 rpm double orbital shaking between the readings for 372 s (excitation/emission: 448∕485 nm). Seeding experiments were performed using the same setting as for the fibrillation assay as described ([39]). Briefly, the experiments were done in triplicates in the presence of 0.05 mg/ml of α-syn fibril seeds (5% seeding) and 1 mg/ml of peptides in a solution of 1 mg/ml α-syn in 96-well plates.

αSOs = biological target: T2, αSOs (Homo sapiens, UniProt P37840); experiment: Calcein release assay, αSOs together with peptides; type: biochemical; conditions: αSOs at calcein^50% (5.2 μg/ml)
T2 construct: made in house; host or cells: Escherichia coli BL21 (DE3); oligomers formed by shaking the monomer and isolated by SEC (Superose 6)
Description: (§1) αSOs show cytotoxic properties, which have been attributed to their membrane-disrupting ability ([69]). To examine the effect of peptides on membrane permeabilization by αSOs, we used a simple calcein release assay. αSOs, peptides, and aSO–peptide mixtures at 10^−6 to 10^−1 mg/ml peptide were added to calcein-loaded DOPG vesicle, and the extent of calcein release was monitored for 30 min by the increase in fluorescence as calcein leaks out upon membrane permeabilization, leading to dilution and the loss of self-quenching. The time-dependent calcein release data from DOPG vesicles ([70], [71]) in the presence of peptides, αSOs, and αSO–peptides are shown in Figs. S9 and S10. In order to allow easy comparison of all peptides, the calcein release versus concentration (peptides and αSOs) were plotted at the plateau point of release (Fig. 5, A–C). […] Figure 5D compares calcein release percentages of data represented in Figure 5, A and B at peptide concentrations between 0.001 and 0.1 mg/ml, where we see the largest extent of calcein release in general.
(§2) Calcein-filled vesicles of DOPG were prepared as described before ([38]). Briefly, DOPG was dissolved in PBS to […], in the presence of calcein at self-quenching concentrations (70 mM) and subjected to 10 freeze–thaw cycles between liquid nitrogen and a 50 °C water bath. After 21 times extrusion through a 100 nm filter, free calcein was separated from vesicles with a PD-10 desalting column (GE Healthcare). Vesicles were stored at 4 °C and used for calcein release assays within 24 h.
(§3) Calcein release was measured by mixing peptides and/or αSOs at a final concentration of 10^−6 to 10^−1 mg/ml and 5.2 μg/ml, respectively, in 148 μl with 2 μl of calcein vesicles, and were then loaded onto a 96-well plate (Nunc, Thermo Fischer Scientific) in triplicate. The plate was sealed with Crystal clear sealing tape (Hampton Research), and fluorescence was measured (excitation: 485 nm and emission: 520 nm) for 1 h at 37 °C every 2 min with a 2 s autoshake before each reading on a fluorescence plate reader (Tecan). Finally, 2 μl Triton X-100 (0.2% [v/v]) was added to lyse vesicles, and the maximal fluorescence signal was measured for 20 min under the same reading condition. Background fluorescence was subtracted, and the average signal of calcein release before addition of Triton X-100 (F), after treatment with Triton X-100 (Ft) and for the buffer control (F0) were determined, and calcein release percentage was calculated as follow (Equation 1):(1) CalceinRelease%(CR%)=(F−F0)/(Ft−F0)

α-syn [2] = biological target: T1, α-syn; experiment: Far-UV CD of fibrillated α-syn–peptide samples; type: biochemical; conditions: fibrillated samples after washing, signal at 218 nm; versus α-syn alone
Text: (§4) To analyze the secondary structure of the final aggregates, we recorded far-UV CD and attenuated total reflectance (ATR)–FTIR spectra for fibrillated samples after washing to remove free α-syn and peptides. […] Overall, as the concentration of peptides increases, the intensity of signal at 218 nm decreases (Fig. 4A). We observed that α-syn fibrils formed in the presence of p194, p222, p235, and p249 precipitated rapidly after mixing with these peptides. This likely gives rise to light scattering, which reduces CD signals. To overcome these artifacts, we turned to ATR–FTIR spectroscopy, which is not sensitive to scattering. […] Both far-UV CD and ATR–FTIR spectroscopy confirm extensive β-sheet structure. However, in the presence of peptides, some structural changes were observed as reflected by the decrease in the amyloid cross β-sheet structure at ∼1629 cm^−1 and increases in the random and coil structures (∼1656 and ∼1676 cm^−1, respectively) (Table 2). […] Taking all together, ATR–FTIR data are in reasonable agreement with far-UV CD.
To remove free α-syn and peptides, fibrillated samples were centrifuged (13,000 rpm, 15 min). This leaves monomeric α-syn plus unbound and free peptides in the supernatant. The supernatant was discarded, and the pellet was washed two times in the same volume of PBS buffer, pH 7.4, to ensure complete removal of monomeric α-syn and free peptides. Far-UV CD spectra were recorded at 25 °C on a Chirascan CD Spectrophotometer (Applied Photophysics) using a 0.1 mm quartz cuvette in the wavelength range of 200 to 260 nm with 1 nm bandwidth and three accumulations. The buffer spectrum was subtracted, and the results were expressed as mean residue ellipticity [θ] (deg cm^2 dmol^−1).

α-syn [3] = biological target: T1, α-syn; experiment: ATR–FTIR of fibrillated α-syn–peptide samples; type: biochemical; conditions: for ATR–FTIR (amyloid structures): fibrillated samples after washing, versus α-syn alone; for Amount of amyloid structures (ATR–FTIR), in words: fibrillated α-syn samples in the presence of peptides
Text: as §4
The samples prepared in the CD section were also used to measure FTIR spectra on a Tensor 27 FTIR spectrophotometer (Bruker). About 2 μl α-syn fibrils were dried on the ATR crystal with a gentle stream of nitrogen gas. Spectra were accumulations of 68 scans in the 4000 to 1000 cm^−1 range. Baseline correlation, second derivative, and atmospheric compensation were performed with OPUS 5.5 software (Bruker, Germany). Signals in the amide I region (∼1550–1700 cm^−1) were smoothed and deconvoluted with PeakFit, version 4.12 software (ِSystat Software Inc) using Lorentzian fitting.

α-syn [4] = biological target: T1, α-syn; experiment: SDS-PAGE of soluble α-syn left in supernatant after fibrillation; type: biochemical; conditions: SDS-PAGE after centrifugation of fibrillated samples
Description: Overall, there was a reasonable but not perfect correspondence between SDS-PAGE and ThT data.
To determine the amount of soluble α-syn, fibrillated samples were centrifuged (13,000 rpm, 15 min) and the supernatants were loaded on Bis–Tris 15% acrylamide gel with prestained protein ladder (Thermo Scientific) and run in a Bis–Tris running buffer at 150 V for 70 min, stained for 20 min in Coomassie brilliant blue (1.2 mM Coomassie brilliant blue, 5% ethanol, and 7% acetic acid), and destained overnight in a destaining solution (5% ethanol and 5% acetic acid). Gel bands were quantified using ImageJ.

[5] = Calcein release assay, substance alone; conditions: for Permeabilization of lipid vesicles by peptide alone: calcein-loaded DOPG vesicles, 10^−6 to 10^−1 mg/ml peptide, 37 °C, triplicate
Description: as §1, §2, §3

α-syn [6] = biological target: T1, α-syn; experiment: TEM of α-syn aggregates formed with peptides; type: biochemical; conditions: α-syn incubated in the presence of peptide
Description: Five microliters of each fibril-containing solution were applied to 400-mesh carbon-coated and glow-discharged nickel grids for 30 s, and blotted with filter paper to remove excess sample. The grids were washed with one drop of double distilled water and then stained with 3 μl of 1% uranyl formate for 15 s. Excess stain was removed by blotting paper This step was repeated two more times. Finally, the grids were left to air dry and viewed on a Tecnai G2 Spirit (FEI Company) operating at 60 kV, and images were taken using a TemCam F416 camera (TVIPS).

Aβ = conditions: cited from earlier work
Text: Penetratin is a widely used CPP. Translocation of full-length and N-terminal truncated ([82]) penetratin has been observed in all cell types, and it is also able to cross the blood–brain barrier (BBB) ([83]). Its mechanism of translocation in live cells is complex and involves structural changes from random coil to α-helix ([84]) and transient formation of tubes or inverted micelles in the membrane that entrap the peptide in its interior. […]. The presence of Trp and net positively charged amino acid residues are important for formation of inverted ...

Substance	Effect on α-syn aggregation (ThT), in words (α-syn [1])	Effect on vesicle permeabilization by αSOs (αSOs; peptide 10^−6 to 10^−1 mg/ml)	Far-UV CD (β-sheet structures) (α-syn [2])	ATR–FTIR (amyloid structures) (α-syn [3])	Amount of amyloid structures (ATR–FTIR), in words (α-syn [3])	Amount of soluble α-syn monomer left in the supernatant, in words (α-syn [4])	Permeabilization of lipid vesicles by peptide alone [5]	Morphology of α-syn aggregates (TEM), in words (α-syn [6])	ThT signal end level (α-syn [1]; unseeded ThT, 37 °C, versus α-syn alone)	Effect on vesicle permeabilization by αSOs (αSOs; peptide 0.1 mg/ml)	Peptide concentration from which membrane toxicity is shown ([5]; peptide alone, calcein-filled DOPG LUVs, tested range 10^−1–10^−6 mg/ml)	Inhibition of amyloid aggregate formation (Aβ fibrillation) (Aβ)
KEGVVAAAEKTKQG [p12]	did not change the lag phase duration	failed to affect vesicle permeabilization by αSOs	↓β	↓ amyl	did not show significant changes in FTIR spectra	do not affect the amount of monomer left in the supernatant	did not permeabilize lipid vesicles	did not cause any significant change in morphology	–	–	–	–
MKGLSKAKEGVVAA [p5]	did not change the lag phase duration	failed to affect vesicle permeabilization by αSOs	↓β	↓ amyl	slightly decreased the amount of amyloid	do not affect the amount of monomer left in the supernatant	did not permeabilize lipid vesicles	did not cause any significant change in morphology	–	–	–	–
RQIKIWFQARRMKWKK [p194, Ala scan variant of penetratin]	inhibitory effect	–	↓↓↓β	↓↓↓ amyl	decreased	–	–	nonfibrillar (amorphous) accumulations	↓↓	increased vesicle permeabilization by αSOs	> 10^−2 mg/ml	–
RQIKIWFQNRRMLWLXaa [pAntp]	–	–	–	–	–	–	–	–	–	–	–	particularly effective inhibitors
RQILIWFQNRRMLWLL [pAntp-BSB1]	–	–	–	–	–	–	–	–	–	–	–	particularly effective inhibitors
SASDSRTFKSSGG [p162]	did not change the lag phase duration	failed to affect vesicle permeabilization by αSOs	↓β	–	slightly decreased the amount of amyloid	do not affect the amount of monomer left in the supernatant	did not permeabilize lipid vesicles	did not cause any significant change in morphology	–	–	–	–
